Results on one compound are retold here after patent US20220257557A1, “PHARMACEUTICAL COMPOSITION FOR PREVENTING OR TREATING NEUROLOGICAL DISEASES” (GLACEUM INC., priority 2019, published 2022).

The test system of test [1] is SH-SY5Y cells. In words: Intracellular ATP production after MPP+ mitochondrial damage. It is filed as cell-based, Human. As to conditions: 1 mM MPP+ 24 h, then 0.0001-1 μM compound 24 h, FIG. 3. The procedure: (§1) Human neuronal SH-SY5Y cells were cultured in a 1:1 DMEM/F12 medium containing 10% FBS (fetal bovine serum) at 37° C. under 5% carbon dioxide and 95% air. The cultured cells were transferred to a 96-well cell culture plate at a density of 2*10^4 cells/well and cultured for 24 hours. Thereafter, after replacement with serum-restricted medium (1:1 DMEM/F12 medium containing 0.5% FBS), the cells were cultured for 16 hours. Then, the cultured cells were treated with 1 mM MPP+ (1-methyl-4-phenylpyridinium) and cultured for 24 hours, thus inducing mitochondrial dysfunction in the cells. […]
100 μl of the cell lysate of the culture obtained in Experimental Example 3-1 was mixed with 100 μl of luciferin-luciferase reaction buffer using an ATP bioluminescent somatic cell assay kit (Sigma-Aldrich), and the mixture was allowed to react at 20° C. for 10 minutes. Thereafter, the supernatant was obtained and the fluorescence intensity thereof was measured with an LB 9501 Lumat-Luminometer to confirm recovery from the decrease in intracellular ATP production caused by mitochondrial damage.
The fluorescence intensities of controls were measured in the same manner as the above-described method, except for using a sample to which DMSO was added (normal control) instead of MMP+ and the compound of Formula III-1 and a sample to which the compound of Formula III-1 was not added (negative control). […]

Test [2] relates to PON2 (Paraoxonase 2). In words: Relative expression level of PON2 in liver of DIO mice (Western blot, relative to actin). It is filed as in vivo, C57BL/6J DIO mice. As to conditions: 100 mg/kg orally once daily for 6 weeks, 60% fat diet. As for the experimental part:
14-Week-old C57BL/6J DIO (Diet Induced Obesity) mice (The Jackson Laboratory, USA) were purchased. The normal control group was fed a 10% fat diet for 3 weeks, and the DIO control group was fed a 60% fat diet for 3 weeks. In addition, the Formula III-1 compound-administered group was fed a 60% fat diet for 3 weeks, and then 100 mg/kg of the compound of Formula III-1 was orally administered thereto once daily for 6 weeks.
The mice of the normal control group, the DIO control group and the Formula III-1 compound-administered group were euthanized, and the liver tissues were extracted therefrom, washed with a PBS solution containing PIC (protease inhibitor cocktail), sectioned to a size of 0.2 to 0.5 g, and stored at −196° C. until the experiment. […]
A lysis buffer (CelLytic™ Cell Lysis Reagent, Sigma-Aldrich Corp.) containing a protease inhibitor cocktail was added to the liver tissue which was then minced using a homogenizer, incubated at 0° C. for 30 minutes, and centrifuged at 14,000 rpm for 15 minutes at 4° C. to obtain the supernatant. The protein concentration was quantified using the Bradford method, and then the same amount of protein was separated by electrophoresis on 10% SDS-PAGE and transferred to a polyvinylidene difluoride membrane (PVDF; Pall Corporation, USA) in glycine-methanol buffer. […]
(In western blotting, separated proteins are transferred to a membrane and probed.)

The test system of test [3] is SH-SY5Y cells. In words: Mitochondrial reactive oxygen species (MitoSOX Red) after MPP+. The test is classed as cell-based, Human. As to conditions: 1 mM MPP+ 24 h, then 0.0001-1 μM compound 24 h, FIG. 5. As for the experimental part:
as §1
The level of reactive oxygen species generated in mitochondria was measured using a reduced fluorescent material called MitoSOX™ Red reagent.
Specifically, the culture obtained in Experimental Example 3-1 was treated with 50 μg of MitoSOX Red dissolved in 13 μl DMSO and was incubated at 37° C. for 1 hour. […] Then, the fluorescence intensity at an excitation wavelength of 510 nm and an emission wavelength of 595 nm was measured with a fluorescence analyzer to determine the level of reactive oxygen species generated in the mitochondria. […]
The concentration of MitoSOX Red determined from the fluorescence intensity was expressed as a percentage of the normal control.

The subject of test [4] is RAW264.7 cells. In words: IL-1β, IL-6 and TNF-α mRNA expression after LPS (RT-PCR). The test is classed as cell-based. As to conditions: 3 h pretreatment (Table 3 amounts), LPS 1 μg/ml 6 h. The procedure, abridged:
(§2)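 Cells pretreated with test compounds (cytotoxicity checked by MTT), then stimulated with 1 μg/ml LPS for 6 h. IL-1β, IL-6 and TNF-α mRNA levels measured by RT-PCR.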

Test [5] relates to BV2 cells. The description is as above. The test is classed as cell-based. As to conditions: 3 h pretreatment (Table 3 amounts), LPS 1 μg/ml 6 h. The procedure, abridged: as §2
The subject of test [6] is RAW264.7 cells. Briefly: Transcription of NF-κB protein (p65, p50) into nucleus after LPS (Western blot). As to conditions: 3 h pretreatment (Table 3 amounts), LPS 1 μg/ml 1 h. It is filed as cell-based. The procedure, abridged: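 Cells (5×10^5/well) cultured in DMEM with 10% FBS at 37° C, 5% CO2, pretreated with compound, then stimulated with 1 μg/ml LPS for 1 hour. Nuclear levels of p65 and p50 measured by Western blot.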

The test system of test [7] is BV2 cells. In words: iNOS and COX-2 expression after LPS (Western blot). The test is classed as cell-based. As to conditions: 3 h pretreatment (Table 3 amounts), LPS 1 μg/ml 24 h. The procedure, abridged: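 RAW264.7 or BV2 cells (5×10^5 cells/well) in DMEM with 10% FBS were pretreated with compound, then stimulated with 1 μg/ml LPS for 24 h. iNOS and COX-2 expression by Western blot; NO and PGE2 production measured. Compound toxicity checked by MTT.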

As to `CCOc1ccc(C2COc3c(ccc4c3CCC(C)(C)O4)C2)c(O)c1` (centres unmarked) [Formula III-1, 2-(8,8-dimethyl-2,3,4,8,9,10-hexahydropyrano[2,3-f]chromen-3-yl)-5-ethoxyphenol], in test [1], the “decrease in ATP production caused by mitochondrial damage due to MPP+” value is “recovery”. Besides, in test [2] (FIG. 1), the “expression level of PON2 compared with DIO control group” value is “higher”. In addition, the “expression level of PON2 compared with normal control group” value in test [2] (FIG. 1b) is “higher”. For the same compound, in test [3], the “level of reactive oxygen species generated in the mitochondria (Mito-SOX)” value is listed as “decreased”. Also, in test [4], the “mRNA expression level of IL-1β” value is given as “concentration-dependently decreased”, the “mRNA expression level of IL-6” value is given as “concentration-dependently decreased” and the “mRNA expression level of TNF-α” value is recorded as “concentration-dependently decreased”. Moreover, in test [5], the “mRNA expression level of IL-1β” value was “concentration-dependently decreased”, the “mRNA expression level of IL-6” value was “concentration-dependently decreased” and the “mRNA expression level of TNF-α” value was “concentration-dependently decreased”. Further, in test [6], the “level of transcription of NF-κB protein into the nucleus, p50” value is on record as “concentration-dependently decreased” and the “level of transcription of NF-κB protein into the nucleus, p65” value is on record as “concentration-dependently decreased”. Moreover, in test [7], the “expression level of COX-2” value is on record as “concentration-dependently decreased” and the “expression level of iNOS” value is reported as “concentration-dependently decreased”.
